# Test results from patent US8158575B2, “Agent for the prevention and treatment of sexually transmitted diseases-I” (priority 2001, dated 2012).
# Marks after values point to notes of the source that are not given here.
# Experiments:
# PBMCs = test: MTS cell viability in PBMC assay; format: cell-based, human
# Text: Human peripheral blood mononuclear cells from a minimum of 2 donors, that have been blasted with PHA and IL-2, were counted, viability determined by Trypan Blue dye exclusion and mixed in equal ratios. Pooled donors were used to minimize the variability observed between individual donors which results from quantitative and qualitative differences in HIV infection and overall response to the PHA and IL-2 of primary lymphocyte populations. The cells were resuspended at 1×10^6 cells/mL in RPMI 1640 without phenol red supplemented with 15% Fetal Bovine Serum (heat inactivated), 2 mM L-glutamine, 100 U/mL penicillin, 100 μg/mL streptomycin, 10 μg/mL gentamycin and IL-2 (20 U/mL, R&D Systems, Minneapolis, Minn.). Fifty microliters of cells were then distributed to the inner 60 wells of a 96 well round bottom microtiter culture plate in a standard format developed by the Infectious Disease Research department of Southern Research Institute. Each plate contains cell control wells (cells only), virus control wells (cells plus virus), and experimental wells (drug plus cells plus virus). Serially diluted compounds are added to the microtiter plate followed by the appropriate pre-titered strain of HIV-1 or SHIV-1. All samples were assayed in triplicate with a replicate plate without virus for the determination of compound toxicity. The final volume per well was 200 µL. The assay was incubated for 6 days in a humidified atmosphere at 37° C., 5% CO2, after which supernatants were collected, for analysis of RT activity and sister plates analyzed for cell viability by MTS dye reduction. Wells were also examined microscopically and any abnormalities noted.
# At assay termination the assay plates were stained with the soluble tetrazolium-based dye MTS (CellTiter® Reagent Promega, Madison, Wis.) to determined cell viability and quantify compound toxicity. […] At termination of the PBMC assay 20 µL of MTS reagent was added per well, and the wells are incubated for 4 h at 37° C.
# AZT has been used as a relevant positive control compound for the individual assays.
# C. trachomatis = C. trachomatis genital tract infection in mice; format: in vivo, mouse; settings: 15 μL of 100 mg/mL, −20 sec
# Text: Lower genital tract infection is defined by isolation of the organism by culture from vaginal swab samples collected on days 3 or 6 post challenge. For upper genital tract infection the definition is isolation of the organism by culture from the upper genital tract tissue harvested on day 10 post challenge. Phosphate buffer PBS treated mice were used as controls.
substance,measurement,setting,value
"BHAlyslys2lys4lys8lys16[NH—CO—CH2)O-3,6-Naphthyl-(SO3Na)2]32 [SPL-7013]",HIV-1 RoJo Infected PBMCs TC50,PBMCs; plate of the HIV-1 RoJo test,>100 µg/mL
same,SHIV 89.6pd Infected PBMCs TC50,PBMCs; plate of the SHIV 89.6pd test,>100 µg/mL
same,"Animals Protected Against Infection, Lower Tract (%)","C. trachomatis; Group 1, mouse",(50%)^a
same,"Animals Protected Against Infection, Lower Tract (number)","C. trachomatis; Group 1, mouse",8
same,"Animals Protected Against Infection, Upper Tract (%)","C. trachomatis; Group 1, mouse",(50%)
same,"Animals Protected Against Infection, Upper Tract (number)","C. trachomatis; Group 1, mouse",8
same,"Animals Protected Against Infection, Lower Tract (%)","C. trachomatis; Group 2, mouse",(38%)
same,"Animals Protected Against Infection, Lower Tract (number)","C. trachomatis; Group 2, mouse",6
same,"Animals Protected Against Infection, Upper Tract (%)","C. trachomatis; Group 2, mouse",(50%)^a
same,"Animals Protected Against Infection, Upper Tract (number)","C. trachomatis; Group 2, mouse",8
